Biological target: Dopamine receptor (Homo sapiens) (UniProt P14416+P35462+P21918+P21917+P21728)

pKa | Compound
9.12 | c1ccc([C@H]2CN3CCC[C@H]3c3ccccc32)cc1
7.03 | CC(C)(C)[C@]1(O)CCN2C[C@@H](c3ccccc3)c3ccccc3[C@@H]2C1

From ChEMBL document CHEMBL1122965, “The pKa of butaclamol and the mode of butaclamol binding to central dopamine receptors” (J Med Chem, 1985)
